Several values for one entry are separate records, joined by “and”; a condition that tells them apart may be missing. Equal entries are not always repeated.
| SMILES | melting point |
| --- | --- |
| O=c1ccc2cc([N+](=O)[O-])ccc2o1 [6-nitrocoumarin] | 188 °C |
| C1=CC2=CC=C3C=CC=CC4=C3CC2=C(C=C1)C=C4 [6H-5,7-ethenocyclohepta[b]heptalene] | 130 °C |
| CC(=O)OC1CCC2(C)C(CC(=O)C3C4CCC(=O)C4(C)CCC32)C1 (stereo not given) [7,17-dioxoandrostan-3-yl acetate] | 165 °C |
| FC(F)(F)c1ccc2cccnc2c1 [7-(trifluoromethyl)quinoline] | 66 °C |
| Clc1cccc2c1=NC(c1ccccc1)C=2c1ccccc1 (stereo not given) [7-chloro-2,3-diphenyl-1H-indole] | 98 °C |
| NS(=O)(=O)c1ccc(F)c2nonc12 [7-fluorobenzofurazan-4-sulfonamide] | 144 °C |
| COc1ccc2c(=O)cc(-c3ccccc3)oc2c1 [7-methoxyflavone] | 110 °C |
| Cc1ccc(O)c2c1CCC2 [7-methyl-4-indanol] | 81 °C |
| O=[N+]([O-])c1ccc(O)c2ncccc12 [8-hydroxy-5-nitroquinoline] | 180 °C |
| c1ccc2c(c1)Cc1ccccc1C2 [9,10-Dihydroanthracene] | 109 °C |
| c1ccc(-c2c3ccccc3c(-c3ccccc3)c3ccccc23)cc1 [9,10-Diphenylanthracene] | 249 °C |
| O=C1c2ccccc2C(=O)c2ccccc21 [9,10-anthraquinone] | 285 °C |
| c1ccc(-c2c3ccccc3c(-c3ccccc3)c3ccccc23)cc1 [9,10-diphenylanthracene] | 251 °C |
| Cc1c2ccccc2cc2ccccc12 [9-Methylanthracene] | 78 °C |
| O=C1c2ccccc2-c2ccccc21 [9-fluorenone] | 84 °C |
| O=C(Cl)OCC1c2ccccc2-c2ccccc21 [9-fluorenylmethyl chloroformate] | 62 °C |
| O=C1c2ccccc2-c2ccccc21 [9H-Fluoren-9-one] | 83 °C |
| c1ccc2c(c1)Cc1ccccc1-2 [9H-Fluorene] | 116 °C |
| O=c1c2ccccc2sc2ccccc12 [9H-Thioxanthen-9-one] | 209 °C |
| OCCCCCCCCCCc1ccccc1 [10-phenyl-1-decanol] | 36 °C |
| CC(CCC(=O)O)C1CCC2C3CCC4CC(=O)CCC4(C)C3CC(O)C12C (stereo not given) [12-hydroxy-3-oxocholan-24-oic acid] | 108 °C |
| CCCCCCCCCCCCCC(=O)CCCCCCCCCCCCC [14-heptacosanone] | 78 °C |
| O=C(O)CCCCCCCCCCCCCCO [15-hydroxypentadecanoic acid] | 86 °C |
| O=C(O)CCCCCCCCCCCCCCCO [16-hydroxyhexadecanoic acid] | 99 °C |
| CC(=O)OC1CCC2(C)C(CCC3C2CCC2(C)C3CCC2(C)CCc2ccccc2)C1 (stereo not given) [17-methyl-21-phenylpregnan-3-yl acetate] | 135 °C |
| CCCOC1CCC2C3CCC4=CC(=O)CCC4(C)C3CCC12C (stereo not given) [17-propoxyandrost-4-en-3-one] | 118 °C |
| C[C@]12CCC(=O)C=C1CC[C@@H]1[C@@H]2CC[C@@]2(C)[C@H]1CC[C@]2(C)O [17a-Methyltestosterone] | 163 °C |

| SMILES | melting point |
| --- | --- |
| C=C(C)C1CC=C(C)/C(=N/O)C1 (stereo not given) [(1E)-5-Isopropenyl-2-methyl-2-cyclohexen-1-one oxime] | 72 °C |
| O/N=C(\Cc1ccccc1)c1ccc2ccccc2c1 [(1E)-N-hydroxy-1-(naphthalen-2-yl)-2-phenylethanimine] | 129 °C |
| O=C(/C=C/c1ccc2ccccc2c1)/C=C/c1ccc2ccccc2c1 [(1E,4E)-1,5-Di(2-naphthyl)-1,4-pentadien-3-one] | 244 °C and 245 °C |
| CC1(C)[C@H]2CC[C@]1(CS(=O)(=O)Cl)C(=O)C2 [(1R)-camphor-10-sulfonyl chloride] | 66 °C |
| CC1(C)[C@@H]2CC[C@@]1(C)C(=O)C2 [(1R)-camphor] | 178 °C |
| CC1(C)[C@@H]2CC[C@@]1(C)C(=O)C2=O [(1R)-camphorquinone] | 200 °C |
| Cl[C@H]1[C@H](Cl)[C@@H](Cl)[C@H](Cl)[C@H](Cl)[C@H]1Cl [(1R,2R,3R,4R,5S,6S)-1,2,3,4,5,6-Hexachlorocyclohexane] | 159 °C |
| CC1(C)[C@@H](C(=O)O)CC[C@@]1(C)C(=O)O [(1R,3S)-camphoric acid] | 186 °C |
| CC1(C)[C@H]2CC[C@]1(C)C(=O)C2 [(1S)-camphor] | 178 °C |
| C1=C\CCCC\C=C/1 [(1Z,3Z)-Cycloocta-1,3-diene] | -53 °C |
| O=C(O)COc1ccc(Cl)cc1Cl [(2,4-Dichlorophenoxy)acetic acid] | 138 °C |
| N#CCc1ccccc1[N+](=O)[O-] [(2-Nitrophenyl)acetonitrile] | 84 °C |
| Nc1cc(Br)ccc1C(O)c1ccccc1 (stereo not given) [(2-amino-4-bromophenyl)(phenyl)methanol] | 113 °C |
| O=C(/C=C/c1ccccc1[N+](=O)[O-])c1cccc(O)c1 [(2E)-1-(3-Hydroxyphenyl)-3-(2-nitrophenyl)-2-propen-1-one] | 188 °C |
| O=C(/C=C/c1ccc(-c2ccccc2)o1)c1ccccc1 [(2E)-1-phenyl-3-(5-phenyl-2-furyl)prop-2-en-1-one] | 80 °C |
| N#C/C(=C\c1ccccc1)c1nc2ccccc2s1 [(2E)-2-(1,3-Benzothiazol-2-yl)-3-phenylacrylonitrile] | 106 °C |
| O=C(O)/C=C/c1cccc2c(Br)ccc([N+](=O)[O-])c12 [(2E)-3-(5-bromo-8-nitronaphthalen-1-yl)prop-2-enoic acid] | 142 °C |
| O=C/C=C/c1ccccc1 [(2E)-3-Phenylacrylaldehyde] | -7 °C |
| O=C(O)/C(=C/c1cccc2ccccc12)c1ccccc1 [(2E)-3-naphthalen-1-yl-2-phenylprop-2-enoic acid] | 161 °C |
| C/C=C/C=O [(2E)-But-2-enal] | -76 °C |
| C/C=C/CC [(2E)-Pent-2-ene] | -140 °C |
| OC[C@@H](O)COCc1ccccc1 [(2R)-3-(Benzyloxy)propane-1,2-diol] | 27.5 °C |
| C[C@H](O)[C@@H](C)O [(2R,3S)-Butane-2,3-diol] | 33 °C |
| C[C@H](O)CN [(2S)-1-amino-2-propanol] | 22.5 °C and 25 °C |
| CO/C(C)=C(\C#N)c1ccccc1[N+](=O)[O-] [(2Z)-3-methoxy-2-(2-nitrophenyl)but-2-enenitrile] | 68 °C |
| CC(=N/O)/C(C)=N\O [(2Z,3Z)-N,N'-Dihydroxybutane-2,3-diimine] | 238 °C |
| COc1ccc(CC(=O)O)cc1OC [(3,4-Dimethoxyphenyl)acetic acid] | 98 °C |

| SMILES | melting point |
| --- | --- |
| OCc1cccc(Oc2ccccc2)c1 [(3-Phenoxyphenyl)methanol] | 10 °C |
| COc1ccc(/C(C)=C/C(C)=O)cc1 [(3E)-4-(4-methoxyphenyl)pent-3-en-2-one] | 53 °C |
| CN1CC[C@@H](c2ccc(F)cc2)[C@H](CO)C1 [(3S,4R)-4-(4-fluorophenyl)-1-methyl-3-piperidinemethanol] | 96 °C |
| C[C@]12CC[C@H](O)[C@@H](O)[C@H]1CC[C@@H]1[C@@H]2CC[C@]2(C)C(=O)CC[C@@H]12 [(3beta,4alpha,5beta)-3,4-Dihydroxyandrostan-17-one] | 221 °C |
| C[C@]12CC[C@@H]3O[C@@H]3[C@H]1CC[C@@H]1[C@@H]2CC[C@]2(C)C(=O)CC[C@@H]12 [(3beta,4beta,5beta)-3,4-Epoxyandrostan-17-one] | 136 °C |
| [O-][P+](c1ccccc1)(c1ccccc1)C1C=C(c2ccccc2)C=C(c2ccccc2)O1 (stereo not given) [(4,6-diphenyl-2H-pyran-2-yl)(diphenyl)phosphane oxide] | 152 °C |
| C[C@]12CCC(=O)C[C@H]1CC[C@@H]1[C@@H]2CC[C@]2(C)C(=O)CC[C@@H]12 [(5beta)-Androstane-3,17-dione] | 147 °C |
| COc1cc(CNC(=O)CCCC/C=C/C(C)C)ccc1O [(6E)-N-(4-Hydroxy-3-methoxybenzyl)-8-methylnon-6-enamide] | 66 °C |
| C=C[C@H]1C[N@@]2CC[C@H]1C[C@H]2[C@H](O)c1ccnc2ccccc12 [(8alpha,9R)-Cinchonan-9-ol] | 200 °C |
| CC(C)Cc1ccc(C(C)C(=O)O)cc1 (stereo not drawn) [(+/+)-ibuprofen] | 74.6 °C |
| O=C4\C=C3/[C@@H]([C@H]2CC[C@]1([C@@H](CC[C@]1(C#C)O)[C@@H]2CC3)CC)CC4 [(-)-levonorgestrel] | 236 °C |
| CCCCc1ccc(/N=N/c2ccc(OCCC)cc2)cc1 [(E)-1-(4-butylphenyl)-2-(4-propoxyphenyl)diazene] | 67 °C |
| O=C(O)/C(=C/c1ccc([N+](=O)[O-])cc1)c1ccc(F)cc1 [(E)-2-(4-Fluorophenyl)-3-(4-nitrophenyl)propenoic acid] | 242 °C |
| [O-]/[N+](=N\c1ccccc1)c1ccc(/N=N/c2ccc(/[N+]([O-])=N/c3ccccc3)cc2)cc1 [(E)-bis{4-[(Z)-phenyl-NNO-azoxy]phenyl}diazene] | 139 °C |
| CC(C)(C)OC(=O)N1CCC[C@@H](O)C1 [(R)-1-boc-3-hydroxypiperidine] | 47 °C |
| ClC(Cl)(Cl)c1ccccc1 [(Trichloromethyl)benzene] | -5 °C |
| FC(F)(F)c1ccccc1 [(Trifluoromethyl)benzene] | -27 °C |
| Cl/C=C\Cl [(Z)-1,2-Dichloroethene] | -80 °C |
| N#CC(C#N)=Nc1ccccc1 [(phenylimino)propanedinitrile] | 87 °C |
| O=C(O)CS(=O)(=O)c1ccccc1 [(phenylsulfonyl)acetic acid] | 112 °C |
| [2H]C([2H])([2H])C([2H])([2H])C([2H])([2H])C([2H])([2H])C([2H])([2H])C([2H])([2H])C([2H])([2H])C([2H])([2H])C([2H])([2H])C([2H])([2H])C([2H])([2H])C([2H])([2H])C([2H])([2H])C([2H])([2H])C([2H])([2H])C([2H])([2H])C([2H])([2H])C(=O)O [(~2~H_35_)Octadecanoic acid] | 67 °C |
| CC(N)=O [Acetamide] | 81 °C |
| CC#N [Acetonitrile] | -46 °C |
| Nc1nc(=O)c2ncn(COCCO)c2[nH]1 [Aciclovir] | 257 °C |
| C=CC(=O)O [Acrylic Acid] | 13.5 °C |
| C1[C@H]3C[C@@H]2C[C@@H](C[C@H]1C2)C3 [Adamantane] | 269 °C |

Reference: the Bradley open melting point set (2014)
